{"source": "patent EP0339681B1", "about": "“Antitumor antibiotic substance” (MEIJI SEIKA KAISHA LTD., priority 1988, dated 1989)", "key": {"[1]": {"tested_on": "P-388 mouse leukemia cells", "test": "Cytotoxic effect: 50% growth inhibition of P-388 cells", "settings": "P388, 72 h, read-out: IC₅₀"}, "P-388 tumor cells": {"tested_on": "P-388 tumor cells", "test": "Therapeutic test on mice with intraperitoneally transplanted P-388 tumor cells", "type": "in vivo, mouse", "settings": "intraperitoneally once a day for two days", "method": "To evaluate antitumor activity of the test compounds, the following therapeutic test was conducted.\nP-388 tumor cells were transplanted into the abdominal cavity of a mouse. A test compound was intraperitoneally administered to the animal once a day for two days. The effect thus observed is expressed in ILS (%). [formula]"}, "infection": {"tested_on": "infection", "settings": "mouse, in vivo; cited from earlier work"}}}
{"smiles": "COC(=O)C1(C)Nc2c(OS(C)(=O)=O)cc3c(c2C1=O)C(CO)CN3C(=O)c1cc2cc(OC)c(OC)c(OC)c2[nH]1", "note": "(stereo not drawn) [Compound 2]", "values": [{"measurement": "IC50", "setting": "[1]", "value": 0.004, "unit": "µg/mL"}, {"measurement": "ILS (%)", "setting": "P-388 tumor cells; Dose 0.25 mg/kg", "value": 15, "unit": "%"}, {"measurement": "ILS (%)", "setting": "P-388 tumor cells; Dose 0.5 mg/kg", "value": 40, "unit": "%"}, {"measurement": "ILS (%)", "setting": "P-388 tumor cells; Dose 1 mg/kg", "value": 40, "unit": "%"}]}
{"smiles": "COC(=O)C1(C)Nc2c(OS(C)(=O)=O)cc3c(c2C1=O)C(COS(C)(=O)=O)CN3C(=O)c1cc2cc(OC)c(OC)c(OC)c2[nH]1", "note": "(stereo not drawn) [Compound 1]", "values": [{"measurement": "IC50", "setting": "[1]", "value": 0.06, "unit": "µg/mL"}, {"measurement": "ILS (%)", "setting": "P-388 tumor cells; Dose 2.4 mg/kg", "value": 40, "unit": "%"}, {"measurement": "ILS (%)", "setting": "P-388 tumor cells; Dose 7 mg/kg", "value": 40, "unit": "%"}, {"measurement": "ILS (%)", "setting": "P-388 tumor cells; Dose 21 mg/kg", "value": 54, "unit": "%"}]}
{"smiles": "COC(=O)C1(C)Nc2c(O)cc3c(c2C1=O)C(CO)CN3C(=O)c1cc2cc(OC)c(OC)c(OC)c2[nH]1", "note": "(stereo not drawn)", "values": [{"measurement": "therapeutic effect on infection", "setting": "infection", "value": "therapeutic effect on infection"}]}
{"smiles": "COC(=O)C1(C)Nc2c(OS(=O)(=O)c3ccc(C)cc3)cc3c(c2C1=O)C(CO)CN3C(=O)c1cc2cc(OC)c(OC)c(OC)c2[nH]1", "note": "(stereo not drawn) [Compound 3]", "values": [{"measurement": "IC50", "setting": "[1]", "value": 2.5, "unit": "µg/mL"}]}
{"smiles": "COC(=O)C1(C)Nc2c(O)cc3c(c2C1=O)C(CCl)CN3C(=O)c1cc2cc(OC)c(OC)c(OC)c2[nH]1", "note": "(stereo not drawn) [SF2582A]", "values": [{"measurement": "therapeutic effect on infection", "setting": "infection", "value": "therapeutic effect on infection"}]}
{"smiles": "COC(=O)C1(C)Nc2c(O)cc3c(c2C1=O)CC(Cl)CN3C(=O)c1cc2cc(OC)c(OC)c(OC)c2[nH]1", "note": "(stereo not drawn) [SF2582B]", "values": [{"measurement": "therapeutic effect on infection", "setting": "infection", "value": "therapeutic effect on infection"}]}
